Assay results as given in patent US10149472B2, “Chitin oligomers for use in promoting non-leguminous plant growth and development” (Wisconsin Alumni Research Foundation, priority 2015, dated 2018).

Assays:
[1] = system: rice knock-out mutants of pollux and dmi3; assay: Root architecture modification in rice Ospollux and Osdmi3 mutants; format: in vivo, Oryza sativa cv Nipponbare; details: 10^−8M; Ospollux and Osdmi3 mutants vs wild-type; FIG. 4
Protocol: Oryza sativa cv Nipponbare wild-type and Tos17 insertion lines in POLLUX (line NC6453) and DMI3 were used for root architecture experiments (12, 13). Seeds were prepared by sterilizing with 2% bleach for 20 minutes, followed by 3, 5-minute rinses with sterile water. The sterile seeds were then imbibed overnight. Seeds were then plated on damp germination paper in Petri plates under sterile conditions and germinated in the dark at 25 degrees for 7 days. Germinated rice plants were then plated on Fahraeus medium on germination paper and grown at 22 degrees under constant light. After 5 days the plants were treated with 10^−8M LCOs and COs for 24 hours by submersion and re-plated onto Fåhræus Medium 1.5% agar plates (0.132 g/L CaCl2, 0.12 g/L MgSO4.7H2O, 0.1 g/L KH2PO4, 0.075 g/L Na2HPO4.2H2O, 5 mg/L Fe-citrate, and 0.07 mg/L each of MnCl2.4H2O, CuSO4.5H2O, ZnCl2, H3BO3, and Na2MoO4.2H2O, adjusted to pH 6.5 before autoclaving). As all signals were suspended in 50% ethanol, the appropriate concentration of ethanol in sterile DI water served as a control. Root system architecture was assessed after 2 weeks.
Total lateral roots of rice were enumerated manually two weeks after application of 10^−8M COs and LCOs. As COs and LCOs were suspended in 50% ethanol, the control is sterile deionized water containing the appropriate amount of ethanol. […] Root system length was measured starting from the root-shoot junction to the tip of the longest root. The number of crown roots was assessed manually as those roots emerging from the root-shoot junction. […] Data were assessed for normality using the Shapiro-Wilk test (α=0.01), and statistical significance was determined using a paired t-test assuming unequal variances, or a Mann-Whitney-Wilcoxon Test if normality was not observed (α=0.05). […]
To assess the role of the common symbiotic pathway in regulating root architecture modifications in response to purified LCOs and COs, we quantified root responses to mycorrhizal signals in rice knock-out mutants of pollux (upstream of calcium spiking) and dmi3 (downstream of calcium spiking).

corn (maize) = assay: Seed treatment of corn in pots; format: in vivo; details: seed coating 125 μl of 10^−6 M, 2 weeks after planting
Protocol: (§1) Five grams of corn (maize) seeds were added to three separate 50 ml tubes. A water solution containing 0.5% ethanol was added to the control tube, 125 μl of 10^−6 M CO4 solution was added to the CO4 tube, and 125 μl of 10^−6 M CO8 solution was added to the CO8 tube. Each tube was then shaken to coat the seeds. Seeds were potted immediately following treatment into moistened SUNGRO® potting mix in 4×6×6 cm pots. Plants were watered by pouring water into the tray containing the pots up to about ¾ inch high. After sowing the seeds, the pots were randomly distributed (16 pots per treatment) throughout the tray and placed underneath continuous light at room temperature for 1 week. Liquid Fahräeus medium (plant fertilizer solution; see above) was applied every 2 days or when necessary. After a week, the pots were placed underneath 10 h light and 14 h dark cycle at room temperature for 1 week. After 1 week underneath 10 h light and 14 h dark cycle (2 weeks after planting), the plants were carefully removed from the pots, and as much soil as possible was shaken off. The remaining soil was removed by submerging the root system into a beaker of water. The number of primary roots (PR), lateral roots (LR), root system length (RSL) and dry weight (DW) was then measured for all plants.

Hard Red Spring Wheat = assay: Seed treatment of hard red spring wheat in pots; format: in vivo; details: seed coating 125 μl of 10^−6 M, 2 weeks after planting
Protocol: as §1, with “hard red spring wheat” for “corn (maize)”

SMILES	dependence of lateral root growth promotion on POLLUX / DMI3 [1]	Average Dry Weight (corn (maize))	Average Root System Length (corn (maize))	Average Seminal Roots (corn (maize))	Number of Lateral Roots (Hard Red Spring Wheat)	Number of Primary Roots (Hard Red Spring Wheat)	Root System Length (cm) (Hard Red Spring Wheat)
CC(=O)N[C@H]1[C@H](O[C@H]2[C@H](O)[C@@H](NC(C)=O)C(O)O[C@@H]2CO)O[C@H](CO)[C@@H](O[C@@H]2O[C@H](CO)[C@@H](O[C@@H]3O[C@H](CO)[C@@H](O)[C@H](O)[C@H]3NC(C)=O)[C@H](O)[C@H]2NC(C)=O)[C@@H]1O (some centres unmarked) [CO4, tetra-N-acetylchitotetraose]	dependent on both POLLUX and DMI3	0.1225	23.76	4.45	16.25	3.15	11.75 cm
CC(=O)N[C@H]1[C@H](O[C@H]2[C@H](O)[C@@H](NC(C)=O)[C@H](O[C@H]3[C@H](O)[C@@H](NC(C)=O)[C@H](O[C@H]4[C@H](O)[C@@H](NC(C)=O)C(O)O[C@@H]4CO)O[C@@H]3CO)O[C@@H]2CO)O[C@H](CO)[C@@H](O[C@@H]2O[C@H](CO)[C@@H](O[C@@H]3O[C@H](CO)[C@@H](O[C@@H]4O[C@H](CO)[C@@H](O[C@@H]5O[C@H](CO)[C@@H](O)[C@H](O)[C@H]5NC(C)=O)[C@H](O)[C@H]4NC(C)=O)[C@H](O)[C@H]3NC(C)=O)[C@H](O)[C@H]2NC(C)=O)[C@@H]1O (some centres unmarked) [CO8, octa-N-acetyl-chitooctaose]	dependent on POLLUX	0.1229	21.42	4.75	14.30	3.35	12.22 cm
